Measured values from patent publication US12077503B2, “Substituted cyclic amides and their use as herbicides” (FMC CORPORATION, priority 2015, dated 2024).

What was measured:
Assay type in all cases: in vivo
[1] = tested on: redroot pigweed (Amaranthus retroflexus); experiment: Test G Pre-Emergence Protocol; settings: Amaranthus retroflexus, pre-emergence, 312 h, evaluated after 13 days; for pest or weed control at 15.625 g/ha: 15.625 g ai/ha; for pest or weed control at 15.625 g/ha / pest or weed control at 250 g/ha: read-out: Pigweed, Redroot damage rating (100=total damage to plant; 0=no damage to plant); for pest or weed control at 62.5 g/ha: 62.5 g ai/ha, 100=total damage to plant, 0=no damage to plant, read-out: plant damage rating, Pigweed, Redroot; for pest or weed control at 250 g/ha: 250 g ai/ha
Summary of the method: (§1)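 Pre-emergence spray, 15.625/62.5/250 g/ha, vehicle acetone:water 50:50 + 0.5% Tween 20, applied 1 d after sowing. Glasshouse 24/16° C, 14 h light, 65% RH, watered twice daily. Visual damage rating at 13 d, 0–100 scale.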

[2] = tested on: barnyardgrass (Echinochloa crus-galli); experiment: Test G Pre-Emergence Protocol; settings: Echinochloa crus-galli, pre-emergence, 312 h, evaluated after 13 days; for pest or weed control at 15.625 g/ha: 15.625 g ai/ha, read-out: Barnyard grass damage rating (100=total damage to plant; 0=no damage to plant); for pest or weed control at 62.5 g/ha: 62.5 g ai/ha, 100=total damage to plant, 0=no damage to plant, read-out: plant damage rating, Barnyardgrass; for pest or weed control at 250 g/ha: 250 g ai/ha, read-out: Barnyardgrass damage rating (100=total damage to plant; 0=no damage to plant)
Summary of the method: as §1

[3] = tested on: ivy-leaved morning glory (Ipomoea hederacea); experiment: Test G Pre-Emergence Protocol; settings: Ipomoea, pre-emergence, 312 h, evaluated after 13 days; for pest or weed control at 15.625 g/ha: 15.625 g ai/ha, read-out: Morning-glory, Ivy-leaved damage rating (100=total damage to plant; 0=no damage to plant); for pest or weed control at 62.5 g/ha: 62.5 g ai/ha, 100=total damage to plant, 0=no damage to plant, read-out: plant damage rating, Morningglory, Ivy-leaved; for pest or weed control at 250 g/ha: 250 g ai/ha, read-out: Morningglory, Ivy-leaved damage rating (100=total damage to plant; 0=no damage to plant)
Summary of the method: as §1

[4] = tested on: velvetleaf (Abutilon theophrasti); experiment: Test G Pre-Emergence Protocol; settings: Abutilon theophrasti, pre-emergence, 312 h, evaluated after 13 days; for pest or weed control at 15.625 g/ha: 15.625 g ai/ha; for pest or weed control at 15.625 g/ha / pest or weed control at 250 g/ha: read-out: Velvetleaf damage rating (100=total damage to plant; 0=no damage to plant); for pest or weed control at 62.5 g/ha: 62.5 g ai/ha, 100=total damage to plant, 0=no damage to plant, read-out: plant damage rating, Velvetleaf; for pest or weed control at 250 g/ha: 250 g ai/ha
Summary of the method: as §1

[5] = tested on: corn (Zea mays); experiment: Test G Pre-Emergence Protocol; settings: Zea mays, pre-emergence, 312 h, evaluated after 13 days; for plant injury at 15.625 g/ha: 15.625 g ai/ha; for plant injury at 15.625 g/ha / plant injury at 250 g/ha: read-out: Corn damage rating (100=total damage to plant; 0=no damage to plant); for plant injury at 62.5 g/ha: 62.5 g ai/ha, 100=total damage to plant, 0=no damage to plant, read-out: plant damage rating, Corn; for plant injury at 250 g/ha: 250 g ai/ha
Summary of the method: as §1

[6] = tested on: giant foxtail (Setaria faberi); experiment: Test G Pre-Emergence Protocol; settings: Setaria faberi, pre-emergence, 312 h, evaluated after 13 days; for pest or weed control at 15.625 g/ha: 15.625 g ai/ha; for pest or weed control at 15.625 g/ha / pest or weed control at 250 g/ha: read-out: Foxtail, Giant damage rating (100=total damage to plant; 0=no damage to plant); for pest or weed control at 62.5 g/ha: 62.5 g ai/ha, 100=total damage to plant, 0=no damage to plant, read-out: plant damage rating, Foxtail, Giant; for pest or weed control at 250 g/ha: 250 g ai/ha
Summary of the method: as §1

[7] = tested on: redroot pigweed (Amaranthus retroflexus); experiment: Test G Post-Emergence Protocol; settings: Amaranthus retroflexus, post-emergence, 312 h; for pest or weed control at 15.625 g/ha: 15.625 g ai/ha, evaluated after 13 days (100=total damage to plant; 0=no damage to plant), read-out: Pigweed, Redroot damage rating; for pest or weed control at 62.5 g/ha: 62.5 g ai/ha, read-out: Pigweed, Redroot damage rating (100=total damage to plant; 0=no damage to plant); for pest or weed control at 62.5 g/ha / pest or weed control at 250 g/ha: evaluated after 13 days; for pest or weed control at 250 g/ha: 250 g ai/ha, read-out: damage to plant, Pigweed, Redroot (100=total damage to plant; 0=no damage to plant)
Summary of the method: (§2)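 Pot-grown seedlings, 8 days old, raised in a glasshouse at 24/16 °C day/night with 14 h light and 65% humidity, were sprayed post-emergence with test compound in acetone/water (50:50) plus 0.5% Tween 20 at 15.625, 62.5 or 250 g/ha. Damage was scored visually 13 days later on a 0–100 scale (100 = total damage).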

[8] = tested on: barnyardgrass (Echinochloa crus-galli); experiment: Test G Post-Emergence Protocol; settings: Echinochloa crus-galli, post-emergence, 312 h; for pest or weed control at 15.625 g/ha: 15.625 g ai/ha, evaluated after 13 days (100=total damage to plant; 0=no damage to plant), read-out: Barnyardgrass damage rating; for pest or weed control at 62.5 g/ha: 62.5 g ai/ha, read-out: Barnyardgrass damage rating (100=total damage to plant; 0=no damage to plant); for pest or weed control at 62.5 g/ha / pest or weed control at 250 g/ha: evaluated after 13 days; for pest or weed control at 250 g/ha: 250 g ai/ha, read-out: damage to plant, Barnyardgrass (100=total damage to plant; 0=no damage to plant)
Summary of the method: as §2

[9] = tested on: ivy-leaved morning glory (Ipomoea hederacea); experiment: Test G Post-Emergence Protocol; settings: Ipomoea, post-emergence, 312 h; for pest or weed control at 15.625 g/ha: 15.625 g ai/ha, evaluated after 13 days (100=total damage to plant; 0=no damage to plant), read-out: Morningglory, Ivy-leaved damage rating; for pest or weed control at 62.5 g/ha: 62.5 g ai/ha, read-out: Morningglory, Ivy-leaved damage rating (100=total damage to plant; 0=no damage to plant); for pest or weed control at 62.5 g/ha / pest or weed control at 250 g/ha: evaluated after 13 days; for pest or weed control at 250 g/ha: 250 g ai/ha, read-out: damage to plant, Morningglory, Ivy-leaved (100=total damage to plant; 0=no damage to plant)
Summary of the method: as §2

[10] = tested on: velvetleaf (Abutilon theophrasti); experiment: Test G Post-Emergence Protocol; settings: Abutilon theophrasti, post-emergence, 312 h; for pest or weed control at 15.625 g/ha: 15.625 g ai/ha, evaluated after 13 days (100=total damage to plant; 0=no damage to plant), read-out: Velvetleaf damage rating; for pest or weed control at 62.5 g/ha: 62.5 g ai/ha, read-out: Velvetleaf damage rating (100=total damage to plant; 0=no damage to plant); for pest or weed control at 62.5 g/ha / pest or weed control at 250 g/ha: evaluated after 13 days; for pest or weed control at 250 g/ha: 250 g ai/ha, read-out: damage to plant, Velvetleaf (100=total damage to plant; 0=no damage to plant)
Summary of the method: as §2

[11] = tested on: corn (Zea mays); experiment: Test G Post-Emergence Protocol; settings: Zea mays, post-emergence, 312 h; for plant injury at 15.625 g/ha: 15.625 g ai/ha, evaluated after 13 days (100=total damage to plant; 0=no damage to plant), read-out: Corn damage rating; for plant injury at 62.5 g/ha: 62.5 g ai/ha, read-out: Corn damage rating (100=total damage to plant; 0=no damage to plant); for plant injury at 62.5 g/ha / plant injury at 250 g/ha: evaluated after 13 days; for plant injury at 250 g/ha: 250 g ai/ha, read-out: damage to plant, Corn (100=total damage to plant; 0=no damage to plant)
Summary of the method: as §2

[12] = tested on: giant foxtail (Setaria faberi); experiment: Test G Post-Emergence Protocol; settings: Setaria faberi, post-emergence, 312 h; for pest or weed control at 15.625 g/ha: 15.625 g ai/ha, evaluated after 13 days (100=total damage to plant; 0=no damage to plant), read-out: Foxtail, Giant damage rating; for pest or weed control at 62.5 g/ha: 62.5 g ai/ha, read-out: Foxtail, Giant damage rating (100=total damage to plant; 0=no damage to plant); for pest or weed control at 62.5 g/ha / pest or weed control at 250 g/ha: evaluated after 13 days; for pest or weed control at 250 g/ha: 250 g ai/ha, read-out: damage to plant, Foxtail, Giant (100=total damage to plant; 0=no damage to plant)
Summary of the method: as §2

Structure (SMILES): Cc1nccc(NC(=O)[C@@H]2C(=O)N(C)C[C@H]2c2ccc(C(F)(F)F)cc2)n1 (racemic) [Compound 1641]
- pest or weed control at 15.625 g/ha [1]: 0%
- pest or weed control at 62.5 g/ha [1]: 0%
- pest or weed control at 250 g/ha [1]: 0%
- pest or weed control at 15.625 g/ha [2]: 0%
- pest or weed control at 62.5 g/ha [2]: 0%
- pest or weed control at 250 g/ha [2]: 0%
- pest or weed control at 15.625 g/ha [3]: 0%
- pest or weed control at 62.5 g/ha [3]: 0%
- pest or weed control at 250 g/ha [3]: 0%
- pest or weed control at 15.625 g/ha [4]: 0%
- pest or weed control at 62.5 g/ha [4]: 0%
- pest or weed control at 250 g/ha [4]: 0%
- plant injury at 15.625 g/ha [5]: 0%
- plant injury at 62.5 g/ha [5]: 0%
- plant injury at 250 g/ha [5]: 0%
- pest or weed control at 15.625 g/ha [6]: 0%
- pest or weed control at 62.5 g/ha [6]: 0%
- pest or weed control at 250 g/ha [6]: 0%
- pest or weed control at 15.625 g/ha [7]: 0%
- pest or weed control at 62.5 g/ha [7]: 0%
- pest or weed control at 250 g/ha [7]: 0%
- pest or weed control at 15.625 g/ha [8]: 0%
- pest or weed control at 62.5 g/ha [8]: 0%
- pest or weed control at 250 g/ha [8]: 0%
- pest or weed control at 15.625 g/ha [9]: 0%
- pest or weed control at 62.5 g/ha [9]: 0%
- pest or weed control at 250 g/ha [9]: 0%
- pest or weed control at 15.625 g/ha [10]: 0%
- pest or weed control at 62.5 g/ha [10]: 0%
- pest or weed control at 250 g/ha [10]: 0%
- plant injury at 15.625 g/ha [11]: 0%
- plant injury at 62.5 g/ha [11]: 0%
- plant injury at 250 g/ha [11]: 0%
- pest or weed control at 15.625 g/ha [12]: 0%
- pest or weed control at 62.5 g/ha [12]: 0%
- pest or weed control at 250 g/ha [12]: 0%

Structure (SMILES): CCc1nnc(NC(=O)[C@@H]2C(=O)N(C)C[C@H]2c2ccc(C(F)(F)F)cc2)s1 (racemic) [Compound 1558]
- pest or weed control at 15.625 g/ha [1]: 0%
- pest or weed control at 62.5 g/ha [1]: 0%
- pest or weed control at 250 g/ha [1]: 10%
- pest or weed control at 15.625 g/ha [2]: 0%
- pest or weed control at 62.5 g/ha [2]: 0%
- pest or weed control at 250 g/ha [2]: 10%
- pest or weed control at 15.625 g/ha [3]: 0%
- pest or weed control at 62.5 g/ha [3]: 0%
- pest or weed control at 250 g/ha [3]: 0%
- pest or weed control at 15.625 g/ha [4]: 0%
- pest or weed control at 62.5 g/ha [4]: 0%
- pest or weed control at 250 g/ha [4]: 0%
- plant injury at 15.625 g/ha [5]: 0%
- plant injury at 62.5 g/ha [5]: 0%
- plant injury at 250 g/ha [5]: 0%
- pest or weed control at 15.625 g/ha [6]: 0%
- pest or weed control at 62.5 g/ha [6]: 0%
- pest or weed control at 250 g/ha [6]: 0%
- pest or weed control at 15.625 g/ha [7]: 0%
- pest or weed control at 62.5 g/ha [7]: 0%
- pest or weed control at 250 g/ha [7]: 0%
- pest or weed control at 15.625 g/ha [8]: 0%
- pest or weed control at 62.5 g/ha [8]: 10%
- pest or weed control at 250 g/ha [8]: 20%
- pest or weed control at 15.625 g/ha [9]: 0%
- pest or weed control at 62.5 g/ha [9]: 0%
- pest or weed control at 250 g/ha [9]: 0%
- pest or weed control at 15.625 g/ha [10]: 0%
- pest or weed control at 62.5 g/ha [10]: 0%
- pest or weed control at 250 g/ha [10]: 0%
- plant injury at 15.625 g/ha [11]: 0%
- plant injury at 62.5 g/ha [11]: 0%
- plant injury at 250 g/ha [11]: 0%
- pest or weed control at 15.625 g/ha [12]: 0%
- pest or weed control at 62.5 g/ha [12]: 0%
- pest or weed control at 250 g/ha [12]: 0%
